Structures can show the parent of a compound that is named as a salt.

The subject of series [1] is stationary phase B. burgdorferi persisters (strain B31). Put plainly: SYBR Green I/PI viability assay (plate reader), FDA-approved drug library screen. The settings on record: for Ratio of Green/Red fluorescence, Primary screening / Ratio of Green/Red fluorescence, Rescreening (first column) / Ratio of Green/Red fluorescence, Rescreening (second column) / Residual viable cells (regression equation, SYBR Green I/PI assay): 50 μM; for Ratio of Green/Red fluorescence, Primary screening / Ratio of Green/Red fluorescence, Rescreening (first column) / Ratio of Green/Red fluorescence, Rescreening (second column): 7 days, stationary phase; for viability at 50 µM: Borreliella burgdorferi, 168 h, read-out: Residual viable cells (regression equation, SYBR Green I/PI assay); for Residual viable cells (regression equation, SYBR Green I/PI assay): 7-day old stationary phase cells treated for 7 days.

Series [2] relates to round body form of B. burgdorferi. Put plainly: SYBR Green I/PI assay on amoxicillin-induced round body form. The settings on record: for viability at 50 µM: Borreliella burgdorferi, 168 h, read-out: Residual viable cells (SYBR Green I/PI assay); for Ratios of green/red fluorescence, Primary screening / Ratios of green/red fluorescence, Rescreening (first column) / Ratios of green/red fluorescence, Rescreening (second column): round body form, 50 μM, 7 days.

As for `CCN(CC)Cc1cc(Nc2ccnc3cc(Cl)ccc23)ccc1O` [Amodiaquin], in series [1], the “Ratio of Green/Red fluorescence, Primary screening” value worked out at 6.79; the “Ratio of Green/Red fluorescence, Rescreening (first column)” value stood at 6.44; the “Ratio of Green/Red fluorescence, Rescreening (second column)” value is 6.85; the viability at 50 µM came out at 45%.

As for `C[C@@H]1[C@H](O)[C@@H](C)/C=C/C=C/C=C/C=C/C=C/C=C/C=C/[C@H](O[C@@H]2O[C@H](C)[C@@H](O)[C@H](N)[C@@H]2O)C[C@@H]2O[C@](O)(C[C@@H](O)C[C@@H](O)[C@H](O)CC[C@@H](O)C[C@@H](O)CC(=O)O[C@H]1C)C[C@H](O)[C@H]2C(=O)O` [Amphotericin B], in series [1], the “Residual viable cells (regression equation, SYBR Green I/PI assay)” value is on record as 50%; the “Ratio of Green/Red fluorescence, Primary screening” value came out at 7.14; the “Ratio of Green/Red fluorescence, Rescreening (first column)” value came out at 6.88; the “Ratio of Green/Red fluorescence, Rescreening (second column)” value is 6.87.

In the case of `C[C@H]1[C@H](NC(=O)/C(=N\OC(C)(C)C(=O)O)c2csc(N)n2)C(=O)N1S(=O)(=O)O` [Aztreonam], in series [2], the viability at 50 µM worked out at 34%; the “Ratios of green/red fluorescence, Primary screening” value worked out at 6.16; the “Ratios of green/red fluorescence, Rescreening (first column)” value was 6.38; the “Ratios of green/red fluorescence, Rescreening (second column)” value was 6.33.

Consider `[Bi]` [Bismuth], for which, in series [1], the “Residual viable cells (regression equation, SYBR Green I/PI assay)” value is listed as 48%; the “Ratio of Green/Red fluorescence, Primary screening” value worked out at 6.94; the “Ratio of Green/Red fluorescence, Rescreening (first column)” value was 6.82; the “Ratio of Green/Red fluorescence, Rescreening (second column)” value is on record as 6.92.

In the case of `Cn1nnnc1SCC1=C(C(=O)O)N2C(=O)[C@@H](NC(=O)[C@H](O)c3ccccc3)[C@H]2SC1` [Cefamandole], in series [1], the “Ratio of Green/Red fluorescence, Primary screening” value came to 6.71; the “Ratio of Green/Red fluorescence, Rescreening (first column)” value was found to be 7.73; the “Ratio of Green/Red fluorescence, Rescreening (second column)” value worked out at 6.52; the viability at 50 µM is 50%.

As for `Cc1nnc(SCC2=C(C(=O)O)N3C(=O)[C@@H](NC(=O)Cn4cnnn4)[C@H]3SC2)s1` [Cefazolin], in series [2], the viability at 50 µM was 34%; the “Ratios of green/red fluorescence, Primary screening” value was found to be 6.23; the “Ratios of green/red fluorescence, Rescreening (first column)” value turned out to be 6.34; the “Ratios of green/red fluorescence, Rescreening (second column)” value was determined as 6.29.

Regarding `C=CC1=C(C(=O)O)N2C(=O)[C@@H](NC(=O)/C(=N\O)c3csc(N)n3)[C@H]2SC1` [Cefdinir], in series [1], the “Ratio of Green/Red fluorescence, Primary screening” value stood at 6.88; the “Ratio of Green/Red fluorescence, Rescreening (first column)” value was 7.51; the “Ratio of Green/Red fluorescence, Rescreening (second column)” value was found to be 6.29; the viability at 50 µM is 48%.

On to `CO/N=C(\C(=O)N[C@@H]1C(=O)N2C(C(=O)[O-])=C(C[N+]3(C)CCCC3)CS[C@H]12)c1csc(N)n1` [Cefepime], for which, in series [1], the “Ratio of Green/Red fluorescence, Primary screening” value turned out to be 6.67; the “Ratio of Green/Red fluorescence, Rescreening (first column)” value amounted to 7.16; the “Ratio of Green/Red fluorescence, Rescreening (second column)” value is reported as 6.45; the viability at 50 µM was 44%.

In the case of `C=CC1=C(C(=O)O)N2C(=O)[C@@H](NC(=O)/C(=N\OCC(=O)O)c3csc(N)n3)[C@H]2SC1` [Cefixime], in series [2], the viability at 50 µM was determined as 34%; the “Ratios of green/red fluorescence, Primary screening” value was 6.41; the “Ratios of green/red fluorescence, Rescreening (first column)” value was determined as 6.21; the “Ratios of green/red fluorescence, Rescreening (second column)” value worked out at 6.27.

In the case of `O=C(O)C1=C(CSc2nnnn2CS(=O)(=O)O)CS[C@@H]2[C@H](NC(=O)[C@H](O)c3ccccc3)C(=O)N12` [Cefonicid], in series [1], the “Ratio of Green/Red fluorescence, Primary screening” value was found to be 6.86; the “Ratio of Green/Red fluorescence, Rescreening (first column)” value was determined as 7.54; the “Ratio of Green/Red fluorescence, Rescreening (second column)” value is 6.07; the viability at 50 µM is 46%.

For the compound `NCc1ccccc1CC(=O)N[C@@H]1C(=O)N2C(C(=O)O)=C(CSc3nnnn3CC(=O)O)CS[C@H]12` [Ceforanide], in series [1], the “Ratio of Green/Red fluorescence, Primary screening” value is recorded as 6.89; the “Ratio of Green/Red fluorescence, Rescreening (first column)” value came out at 7.49; the “Ratio of Green/Red fluorescence, Rescreening (second column)” value is on record as 6.33; the viability at 50 µM is 48%.

Take `CC(C)(O/N=C(\C(=O)N[C@@H]1C(=O)N2C(C(=O)[O-])=C(C[n+]3ccccc3)CS[C@H]12)c1csc(N)n1)C(=O)O` [Ceftazidime]: in series [2], the viability at 50 µM amounted to 34%; the “Ratios of green/red fluorescence, Primary screening” value was determined as 6.20; the “Ratios of green/red fluorescence, Rescreening (first column)” value amounted to 6.34; the “Ratios of green/red fluorescence, Rescreening (second column)” value was determined as 6.37.

As for `CO/N=C(\C(=O)N[C@@H]1C(=O)N2C(C(=O)O)=CCS[C@H]12)c1csc(N)n1` [Ceftizoxime], in series [1], the “Ratio of Green/Red fluorescence, Primary screening” value is on record as 6.94; the “Ratio of Green/Red fluorescence, Rescreening (first column)” value is given as 6.83; the “Ratio of Green/Red fluorescence, Rescreening (second column)” value is on record as 7.03; the viability at 50 µM came to 49%.

As to `CN(C)[C@@H]1C(O)=C(C(N)=O)C(=O)[C@@]2(O)C(O)=C3C(=O)c4c(O)ccc(Cl)c4[C@@](C)(O)[C@H]3C[C@@H]12` [Chlortetracycline], in series [2], the viability at 50 µM is 31%; the “Ratios of green/red fluorescence, Primary screening” value is given as 6.20; the “Ratios of green/red fluorescence, Rescreening (first column)” value worked out at 6.36; the “Ratios of green/red fluorescence, Rescreening (second column)” value is given as 6.18.

For `C[C@@H]1O[C@@H]1P(=O)(O)O` [Fosfomycin], in series [2], the viability at 50 µM was determined as 31%; the “Ratios of green/red fluorescence, Primary screening” value is 6.39; the “Ratios of green/red fluorescence, Rescreening (first column)” value was 6.12; the “Ratios of green/red fluorescence, Rescreening (second column)” value came to 6.16.

As for `C=C1c2c(Cl)ccc(O)c2C(=O)C2=C(O)[C@]3(O)C(=O)C(C(N)=O)=C(O)[C@@H](N(C)C)[C@@H]3[C@@H](O)[C@H]12` [Meclocycline], in series [2], the viability at 50 µM amounted to 33%; the “Ratios of green/red fluorescence, Primary screening” value was 6.52; the “Ratios of green/red fluorescence, Rescreening (first column)” value turned out to be 6.23; the “Ratios of green/red fluorescence, Rescreening (second column)” value amounted to 6.09.

With `O=[N+]([O-])c1ccc(/C=N/O)o1` [Nifuroxime], in series [2], the viability at 50 µM came out at 30%; the “Ratios of green/red fluorescence, Primary screening” value worked out at 6.10; the “Ratios of green/red fluorescence, Rescreening (first column)” value is recorded as 6.32; the “Ratios of green/red fluorescence, Rescreening (second column)” value is given as 6.22.

For the compound `C=C[C@H]1C[N@@]2CC[C@H]1C[C@H]2[C@H](O)c1ccnc2ccc(OC)cc12` [Quinine hydrobromide], in series [1], the “Ratio of Green/Red fluorescence, Primary screening” value is reported as 7.00; the “Ratio of Green/Red fluorescence, Rescreening (first column)” value worked out at 6.85; the “Ratio of Green/Red fluorescence, Rescreening (second column)” value worked out at 6.88; the viability at 50 µM is 50%.

For `COc1cnc(NS(=O)(=O)c2ccc(N)cc2)nc1` [Sulfameter], in series [1], the “Ratio of Green/Red fluorescence, Primary screening” value was found to be 7.13; the “Ratio of Green/Red fluorescence, Rescreening (first column)” value is 7.46; the “Ratio of Green/Red fluorescence, Rescreening (second column)” value is 6.98; the viability at 50 µM came out at 54%. Also, the “activity against stationary phase B. burgdorferi (words; SYBR Green I/PI assay)” value in series [1] (FDA drug screen) is “effective”.

Take `CC1(C)S[C@@H]2[C@H](NC(=O)[C@H](C(=O)O)c3ccsc3)C(=O)N2[C@H]1C(=O)O` [Ticarcillin]: in series [1], the “Ratio of Green/Red fluorescence, Primary screening” value came to 6.82; the “Ratio of Green/Red fluorescence, Rescreening (first column)” value was determined as 6.72; the “Ratio of Green/Red fluorescence, Rescreening (second column)” value was 6.93; the viability at 50 µM is 46%.

Collistin: in series [1], the “Ratio of Green/Red fluorescence, Primary screening” value was 7.15; the “Ratio of Green/Red fluorescence, Rescreening (first column)” value came to 7.26; the “Ratio of Green/Red fluorescence, Rescreening (second column)” value stood at 7.23.
